Laboratory results as given in US10077436B2, “Beta-glucosidase enzymes for increased biomass saccharification” (Edeniq, Inc., priority 2013, dated 2018).

Test system: A-BG (Accellerase® BG from DuPont), commercial beta-glucosidase
Test: BG kinetics, pNPG hydrolysis assay with glucose as competitive inhibitor, A-BG
Assay type: biochemical
Method: The kinetic properties of beta glucosidase are important for cellulosic hydrolysis, since in commercial situations a wide range of substrate concentrations and different product inhibition conditions will be encountered. In this example, a Michaelis-Menten kinetics model was used to describe BG kinetics.
One pNPG unit is defined as the amount of enzyme that produces 1 μmol of pNP per min. Briefly, to determine BG activity, 25 μL of diluted enzyme in 200 mM sodium acetate buffer (pH 5.0) was mixed with 25 μL of the same buffer and 25 μL of RO water (or glucose solution for the kinetic study) and the mixture was preincubated at 50° C. for 5 min. The reaction was initiated by adding 25 μL of 10 mM pNPG in 200 mM sodium acetate buffer (pH 5.0) and the mixture was incubated at 50° C. for 10 min. The reaction was then terminated by adding 100 μL of 0.25 M sodium carbonate, and the amount of pNP produced was determined by measuring absorbance at 405 nm using a predetermined calibration curve.
The range of substrate concentration was chosen to show detectable activity at the lowest concentration and saturation stage at high substrate concentration.
To determine the kinetic properties, a competitive inhibition mechanism was hypothesized as proposed in the literature (Chauve et al, 2010; Krogh et al, 2010). The Michaelis-Menten equation with the competitive inhibition term can be expressed in Equation (1), where [S] is the substrate concentration (mM), [I] is the inhibitor concentration (mM), V is the rate of product formation (mM/min), Vmax is the maximal rate of product formation (mM/min), Km is the Michaelis-Menten constant and Ki is the inhibition constant. The turnover number, Kcat, can be calculated by Equation (2), where [Et] is the total amount of enzyme.
Conventionally, linearization methods can be used to determine the kinetic parameters based on Equation (1). Three common linear plots used are Lineweaver-Burke, Eadie-Hofstee and Hanes plots (Rogers and Gibon, 2009). However, these linearized versions of the Michaelis-Menten equation often produce substantial errors in parameter estimation. […] All of the activity data at different substrate levels and different inhibitor levels were fit simultaneously according to the full nonlinear equation for competitive enzyme inhibition as expressed in Equation (1). Thus, Vmax, Km and Ki can be determined simultaneously from this fitting process, and Km/Ki can then be calculated. Kcat can be obtained by Equation (2) and Kcat/Km can be calculated accordingly.
The above experimental data were fit in the competitive inhibition model as expressed in Equation (1) by simultaneous nonlinear regression.

OC[C@H]1OC(O)[C@H](O)[C@@H](O)[C@@H]1O (some centres unmarked) [glucose]
loss of activity under glucose inhibition (9 g/L initial glucose, 0.08 mM pNPG): lost activity completely | maximum relative activity under glucose inhibition (36 g/L initial glucose, high pNPG concentration, relative to maximum activity without glucose): 1.5% | loss of activity under glucose inhibition (36 g/L initial glucose, pNPG below 1.875 mM): activity was completely lost | Km/Ki (inhibitor influence, Km for pNPG / Ki for glucose, pH 5.0, 50° C.): 0.22 | Ki (pNPG substrate, competitive inhibition, pH 5.0, 50° C.): 460 ± 50 µM
